One test has as its system thoracic aorta. Put plainly: Vasorelaxant effect on isolated vessels (rat thoracic aorta rings without endothelium, precontracted with noradrenalin). Set-up: species or system Wistar rats. Particulars: for Emax: Rattus norvegicus, maximum inhibition of noradrenalin effect, 10^-8 to 10^-4 M substance, read-out: Maximum Relaxation; for IC50: rat aorta, 10^-7 M noradrenalin contraction. The essentials:
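Endothelium-denuded thoracic aorta rings from Wistar rats, held in Krebs-Ringer buffer (pH 7.4, 37 °C, 95% O2/5% CO2) under isometric tension and precontracted with 10^-7 M noradrenalin, received cumulative compound (10^-8 to 10^-4 M). Maximum relaxation given as percent; IC50 calculated when relaxation exceeded 50%.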

Another test deals with anesthetised pigs. The test can be described thus: Haemodynamic effects on anesthetised pigs. The format is in vivo, pigs ("German land" race). The method, then: Haemodynamic effects of the compounds according to the invention on anesthetised pigs or dogs
Pigs are of "German land" race (20-26 kg) and are used after fasting overnight.
In the case of pigs, sedation, analgesia and anesthesia are induced by ketamine HCl (20 mg/kg i.m.), methonidate HCl (10 mg/kg i.m.), xylacine HCl (3 mg/kg i.m.) and sodium pentobarbitol (25-30 mg/kg as bolus i.v. or 0.16 mg/kg/min as i.v. perfusion).
The pigs or dogs are placed under artificial respiration in ambient air. Analysis of the blood gases (pO2, pCO2) is carried out at regular intervals and oxygen can be supplied via the respirator, if necessary.
The haemodynamic parameters recorded include the left ventricular pressure (LVP; Millar PC350 Tip catheter inserted via the carotid artery), systemic blood pressure (BPs, BPd; full catheter in a femoral artery), the end pressure of the left ventricular diastole (LVEDP), the ventricular contractility (LVPdp/dtmax) and the heart rate (HR).
The haemodynamic variables are recorded continuously for 1 to 3 hours, as a function of the period of action of the compound.
The effects of the compounds studied are shown as the absolute difference with respect to the base value (bv) measured before administration of the compounds and are shown in Table VII (a,b,c).
An antianginal activity is estimated by a fall in the BPs and the LVEDP (fall in venous return).

The subject of test [1] is isolated pulmonary vessel. Put plainly: Relaxant activity on blood vessels isolated from guinea pigs (pulmonary artery). Particulars: Cavia porcellus; guinea pig pulmonary artery, K+ depolarised, Ca2+ contraction; read-out: IC50 (relaxation of 50%). On the procedure: Determination of the relaxant activity of the compounds according to the invention on blood vessels isolated from guinea pigs.
The pulmonary artery of male guinea pigs (350-500 g) is isolated and cut into spiral tracts (1 mm wide, 15 mm long). […] After having removed the calcium from the tissues (Tyrode without calcium and 0.2 mM EDTA), the tracts are depolarised in the presence of a concentrated solution of K^+ ions (40 mM), which is produced by replacing the NaCl by equimolar amounts of KCl, and a contraction of long duration is then induced by Ca^2+ ions (0.5 mM).
The compounds studied are then introduced into the organ cell in increasing concentrations.
Each compound is tested on at least four vessel spiral tracts.

The test system of a further test is anesthetised dogs. The test can be described thus: Haemodynamic effects on anesthetised dogs. The format is in vivo, dogs (labrador/harrier cross). Conditions: dogs. The essentials: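 Anaesthetised labrador/harrier dogs (16–26 kg; pentobarbital induction then 8 mg/kg/h i.v. infusion, artificial respiration) given compound i.d. or i.v. after ~45 min equilibration. LVP, systolic/diastolic BP, LVEDP, LVdP/dtmax and HR recorded continuously 1–3 h; values are absolute change from pre-dose baseline.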

Where a name gives a salt, the structure may show the parent alone.

By IC50 is commonly meant the concentration that gives 50% inhibition. As to `CC(=O)NCSC[C@H](NC(=O)OC(C)(C)C)C(=O)N[C@H]1CO[C@H]2[C@@H]1OC[C@@H]2O[N+](=O)[O-]` [Compound 33, S-[(Acetylamino)methyl]-N-[(t-butoxy)carbonyl]-L-cysteine amide of 5-amino-5-deoxy-2-O-nitro-1,4:3,6-dianhydro-L-iditol], in the test with thoracic aorta, the Emax is 50% and the IC50 is greater than 100 µM. Also, in the test on anesthetised pigs (pigs, 10,0 mg/kg i.d.), the “BPs (min), period of action” value was greater than 60 min; the “BPs, difference to base value” is recorded as -12 mmHg; the “LVRDP (min), period of action” value is listed as greater than 60 min; the “LVRDP, difference to base value” was -3,0 mmHg.

On to `O=C(O[C@H]1CO[C@H]2[C@@H]1OC[C@H]2O[N+](=O)[O-])c1ccccc1SCc1ccccc1` [Compound 22, 2-O-[2-[(Phenylmethyl)thio]benzoyl]-5-O-nitro-1,4:3,6-dianhydro-D-glucitol], for which, in the test with thoracic aorta, the Emax was 100% and the IC50 was determined as 10 µM. The IC50 in test [1] was determined as 3 µM. Besides, in the test with anesthetised pigs (pigs, 10 mg/kg i.v.), the “BPs (min), period of action” value worked out at 5 min; the “BPs, difference to base value” is recorded as -73 mmHg; the “LVRDP (min), period of action” value is given as 5 min; the “LVRDP, difference to base value” is -2,0 mmHg.

With `CC1(C)SC[C@@H](C(=O)NCC(=O)N[C@H]2CO[C@H]3[C@@H]2OC[C@@H]3O[N+](=O)[O-])N1C=O` [Compound 48, 5-[[2-[[(3-Formyl-2,2-dimethyl-4-L-thiazolidinyl)carbonyl]amino]-1-oxoethyl]amino]-5-deoxy-2-O-nitro-1,4:3,6-dianhydro-L-iditol], in the test with thoracic aorta, the Emax worked out at 25% and the IC50 was greater than 100 µM. For the same molecule, the IC50 in test [1] is greater than 100 µM. Also, in the test on anesthetised pigs (pigs, 10,0 mg/kg i.d.), the “BPs (min), period of action” value is reported as greater than 180 min; the “BPs, difference to base value” is given as -25 mmHg; the “LVRDP (min), period of action” value was greater than 180 min; the “LVRDP, difference to base value” is recorded as -4,0 mmHg.

For the molecule `CC1(C)SC[C@@H](C(=O)N[C@H]2CO[C@H]3[C@@H]2OC[C@@H]3O[N+](=O)[O-])N1C=O` [Compound 31, 5-[[(3-Formyl-2,2-dimethyl-4-L-thiazolidinyl)carbonyl]amino]-5-deoxy-2-O-nitro-1,4:3,6-dianhydro-L-iditol monohydrochloride], in the test with thoracic aorta, the Emax stood at 83% and the IC50 was 25 µM. In addition, in the test on anesthetised pigs (pigs, 10,0 mg/kg i.d.), the “BPs (min), period of action” value is given as greater than 60 min; the “BPs, difference to base value” is on record as -15 mmHg; the “LVRDP (min), period of action” value is listed as greater than 60 min; the “LVRDP, difference to base value” is -2,0 mmHg.

As to `O=C(N[C@H]1CO[C@H]2[C@@H]1OC[C@@H]2O[N+](=O)[O-])c1ccccc1SCc1ccccc1` [Compound 39], in the test on thoracic aorta, the Emax is 80% and the midpoint of inhibition, the IC50, lay at 50 µM. Besides, in test [1], the IC50 was 1 µM. Moreover, in the test on anesthetised pigs (pigs, 10,0 mg/kg i.d.), the “BPs (min), period of action” value is greater than 90 min; the “BPs, difference to base value” is on record as -5 mmHg; the “LVRDP (min), period of action” value is recorded as greater than 90 min; the “LVRDP, difference to base value” was -1,0 mmHg.

Consider `CC(=O)NCSc1ccccc1C(=O)O[C@H]1CO[C@H]2[C@@H]1OC[C@H]2O[N+](=O)[O-]` [Compound 23], for which, in the test with anesthetised pigs (pigs, 10,0 mg/kg i.d.), the “BPs, difference to base value” turned out to be 0 mmHg and the “LVRDP, difference to base value” was determined as 0 mmHg.

As to `O=C(CNC(=O)c1ccccc1SCc1ccccc1)N[C@H]1CO[C@H]2[C@@H]1OC[C@@H]2O[N+](=O)[O-]` [Compound 47, 5-[[[[2-[(Phenylmethyl)thio]benzoyl]amino]-1-oxoethyl]amino]-5-deoxy-2-O-nitro-1,4:3,6-dianhydro-L-iditol], the IC50 in test [1] is 2 µM. Moreover, in the test with anesthetised pigs (pigs, 10,0 mg/kg i.d.), the “BPs (min), period of action” value is recorded as greater than 120 min; the “BPs, difference to base value” is -10 mmHg; the “LVRDP (min), period of action” value was greater than 90 min; the “LVRDP, difference to base value” is -1,0 mmHg.

On to `CC(=O)NCSC[C@H](NC(=O)OC(C)(C)C)C(=O)O[C@H]1CO[C@H]2[C@@H]1OC[C@H]2O[N+](=O)[O-]` [Compound 20, S-[(Acetylamino)methyl]-N-[(t-butoxy)carbonyl]-L-cysteine ester of 5-O-nitro-1,4:3,6-dianhydro-D-glucitol], for which, in the test with thoracic aorta, the Emax turned out to be 85% and the midpoint of inhibition, the IC50, lay at 28 µM. Moreover, in the test on anesthetised pigs (pigs, 10 mg/kg i.v.), the “BPs (min), period of action” value is recorded as 5 min; the “BPs, difference to base value” is reported as -20 mmHg; the “LVRDP (min), period of action” value stood at 5 min; the “LVRDP, difference to base value” was -4,0 mmHg.

On to `O=C(O[C@@H]1CO[C@H]2[C@@H]1OC[C@@H]2O[N+](=O)[O-])c1ccccc1SSc1ccccc1C(=O)O[C@@H]1CO[C@H]2[C@@H]1OC[C@@H]2O[N+](=O)[O-]` [Compound 29, Bis[5-O-[(2-thio)benzoyl]-2-O-nitro-1,4:3,6-dianhydro-D-glucitol]], for which, in the test with anesthetised pigs (pigs, 3 mg/kg i.v.), the “BPs (min), period of action” value came out at 10 min; the “BPs, difference to base value” is on record as -42 mmHg; the “LVRDP (min), period of action” value turned out to be 16 min; the “LVRDP, difference to base value” is -2,0 mmHg.

Regarding `CC(C)(C)OC(=O)N1CSC[C@H]1C(=O)NCC(=O)N[C@H]1CO[C@H]2[C@@H]1OC[C@@H]2O[N+](=O)[O-]` [Compound 60], in the test on thoracic aorta, the Emax came to 53% and the half-inhibitory concentration (IC50) is 87 µM. Moreover, in the test with anesthetised dogs (3 mg/kg i.d.), the “BPs (min), period of action” value is given as greater than 60 min; the “BPs, difference to base value” is -15 mmHg; the “LVEDP (min), period of action” value was found to be 0 min; the “LVEDP, difference to base value” was 0,0 mmHg.

On to `CC(=O)NCSC[C@H](N)C(=O)N[C@H]1CO[C@H]2[C@@H]1OC[C@@H]2O[N+](=O)[O-]` [Compound 34, S-[(Acetylamino)methyl]-L-cysteine amide of 5-amino-5-deoxy-2-O-nitro-1,4:3,6-dianhydro-L-iditol monohydrochloride], for which, in the test on thoracic aorta, the Emax was found to be 25% and the IC50 was greater than 100 µM. Besides, in the test on anesthetised pigs (pigs, 10,0 mg/kg i.d.), the “BPs (min), period of action” value is given as greater than 180 min; the “BPs, difference to base value” is listed as -22 mmHg; the “LVRDP (min), period of action” value is greater than 180 min; the “LVRDP, difference to base value” is on record as -4,0 mmHg.

As for `CC(C)(C)OC(=O)N[C@@H](CSSc1ccccc1[N+](=O)[O-])C(=O)N[C@H]1CO[C@H]2[C@@H]1OC[C@@H]2O[N+](=O)[O-]` [Compound 35, S-[(2-Nitrophenyl)thio]-N-[(t-butoxy)carbonyl]-L-cysteine amide of 5-amino-5-deoxy-2-O-nitro-1,4:3,6-dianhydro-L-iditol], in the test on thoracic aorta, the Emax worked out at 46% and the IC50 turned out to be 100 µM. In addition, in the test with anesthetised dogs (3 mg/kg i.v.), the “BPs (min), period of action” value is greater than 30 min; the “BPs, difference to base value” is listed as -10 mmHg; the “LVEDP (min), period of action” value was 0 min; the “LVEDP, difference to base value” is on record as 0,0 mmHg.

As for `CC(C)(C)OC(=O)N[C@@H](Cc1ccccc1)C(=O)N[C@H]1CO[C@H]2[C@@H]1OC[C@@H]2O[N+](=O)[O-]` [Compound 11, N-[(t-Butoxy)carbonyl]-L-phenylalanine amide of 5-amino-5-deoxy-2-O-nitro-1,4:3,6-dianhydro-L-iditol], in the test on thoracic aorta, the Emax was 100% and 25 µM corresponded to half-maximal inhibition (IC50). Moreover, in the test with anesthetised dogs (3 mg/kg i.v.), the “BPs (min), period of action” value is listed as greater than 30 min; the “BPs, difference to base value” is -10 mmHg; the “LVEDP (min), period of action” value is 0 min; the “LVEDP, difference to base value” is given as 0,0 mmHg.

`CC(=O)NCSC[C@H](N)C(=O)O[C@@H]1CO[C@H]2[C@@H]1OC[C@@H]2O[N+](=O)[O-]` [Compound 27, S-[(Acetylamino)methyl]-L-cysteine ester of 2-O-nitro-1,4:3,6-dianhydro-D-glucitol monohydrochloride]: in the test with thoracic aorta, the Emax is 14% and the IC50 was greater than 100 µM. Also, in the test on anesthetised dogs (3 mg/kg i.v.), the “BPs (min), period of action” value is greater than 90 min; the “BPs, difference to base value” was -15 mmHg; the “LVEDP (min), period of action” value was greater than 90 min; the “LVEDP, difference to base value” was -1,0 mmHg.
